Experimental findings from patent US20090111781A1, “Use of Cymipristone Type Compounds in Aids Treatment” (SHANGHAI THREE-ALLIANCE BIOTECHNOLOGIES CO., LTD., priority 2005, published 2009) are described below.

Converted amounts (≈) assume the structure as drawn.

Data set [1] is described as follows: MTT toxicity on PBMC infected by HIV-1 AZT-sensitive strain 018a. Conditions: human, PBMC, 018a. On the procedure:
Collect cells with curette, infect cells with 10^−2 AZT sensitive (018a) or AZT resistant (018c) virus strain liquid, and adsorb for 2 hours, Wash off unabsorbed virus with 1640 culture medium without serum, prepare cells infected by virus to 1×10^6/ml with culture solution, and inoculate on 96-pore culture plate, 100 μl/pore. […] Set cell control group and virus infected cell control group. Incubate under 37° C. and 5% CO2. On the fourth day (96 hours), pipette out the supernatant liquid and store under −20° C. for determination of HIV-1 P24 antigen titer and calculation of drug inhibitory action. Add MTT staining to cells for determination of cytotoxicity. Determination of cytotoxicity by MTT staining: Add 10 μl of 5 mg/ml MTT stain into each pore, continue to incubate under 37° C., 5% CO2 and saturated humidity for 4 hours. […] Determine the HIV-1 P24 antigen titer according to the operation procedure provided by the HIV-1 P24 antigen reagent kit. Compare the drug-added group with virus control group. […] Calculation method of 50% toxic concentration (CC50), 50% effective concentration (EC50) and selection index (SI): […]

Data set [2] concerns HIV-1 AZT-sensitive strain 018a P24 antigen. Put plainly: Inhibition of HIV-1 018a P24 antigen in PBMC cell culture. Format: cell-based. Conditions: for EC50: Human immunodeficiency virus 1, PBMC, 2 h, administration after adsorbing 2 hours. On the procedure:
(§1) Collect cells with curette, infect cells with 10^−2 AZT sensitive (018a) or AZT resistant (018c) virus strain liquid, and adsorb for 2 hours, Wash off unabsorbed virus with 1640 culture medium without serum, prepare cells infected by virus to 1×10^6/ml with culture solution, and inoculate on 96-pore culture plate, 100 μl/pore. […] Set cell control group and virus infected cell control group. Incubate under 37° C. and 5% CO2. On the fourth day (96 hours), pipette out the supernatant liquid and store under −20° C. for determination of HIV-1 P24 antigen titer and calculation of drug inhibitory action. Add MTT staining to cells for determination of cytotoxicity. Determination of cytotoxicity by MTT staining: Add 10 μl of 5 mg/ml MTT stain into each pore, continue to incubate under 37° C., 5% CO2 and saturated humidity for 4 hours. […] Determine the HIV-1 P24 antigen titer according to the operation procedure provided by the HIV-1 P24 antigen reagent kit. Compare the drug-added group with virus control group. […] Calculation method of 50% toxic concentration (CC50), 50% effective concentration (EC50) and selection index (SI):
(§2) (3) Calculation Method of Selection Index (SI) on HIV-1 P24 Antigen in Cell Culture SI=CC50/EC50

Data set [3] concerns HIV-1 AZT-resistant strain 018c P24 antigen. Description: Inhibition of HIV-1 018c P24 antigen in PBMC cell culture. Conditions: for EC50: Human immunodeficiency virus 1, PBMC, 2 h, PBMC, administration after adsorbing 2 hours; for EC50 / SI: 018c; for SI: SI=CC50/EC50. Format: cell-based. On the procedure:
as §1, §2

For orientation: CC50 means the concentration giving 50% cytotoxicity. Low values mean harm at low concentration, high ones better tolerance by the cells. One may read the EC50 as the concentration needed to bring the measured effect to its halfway point. Higher therefore signals a need for much substance. Take `CC#C[C@]1(O)CC[C@H]2[C@@H]3CCC4=CC(=O)CCC4=C3[C@@H](c3ccc(N(C)C4CCCCC4)cc3)C[C@@]21C` [Cymipristone, 11β-[4-(N-methyl-N-cyclohexylamino)phenyl]-17α-(1-propynyl)-17β-hydroxyl-4,9-estradiene-3-one]: the CC50 at 96 h turned out to be 130 µg/mL (≈ 261 µM) in data set [1] (50% toxic concentration CC50, Average); 104 µg/mL (≈ 208 µM) in data set [1] (50% toxic concentration CC50, Experiment 1); 156 µg/mL (≈ 314 µM) in data set [1] (50% toxic concentration CC50, Experiment 2). Besides, the EC50 in data set [2] (Average, PBMC) is 12.4 µg/mL (≈ 24.8 µM); in data set [2] (Experiment 1, PBMC) it was 12.5 µg/mL (≈ 25.1 µM); in data set [2] (Experiment 2, PBMC), 12.2 µg/mL (≈ 24.6 µM); in data set [3] (Average) it was 7.9 µg/mL (≈ 15.9 µM); in data set [3] (Experiment 1) it was 8.42 µg/mL (≈ 16.9 µM); in data set [3] (Experiment 2), 7.38 µg/mL (≈ 14.8 µM). Further, the SI stood at 10.53 in data set [2] (SI=CC50/EC50, Average); 8.30 in data set [2] (SI=CC50/EC50, Experiment 1); 12.76 in data set [2] (SI=CC50/EC50, Experiment 2); 13.18 in data set [3] (Average); 12.21 in data set [3] (Experiment 1); 14.15 in data set [3] (Experiment 2). The “Cross resistance with zidovudine (AZT) (in words)” value in data set [3] (conclusion) is given as “no cross resistance”.
